Measured values reported in patent US9556164B2, “Salts of Dasatinib in crystalline form” (BASF SE, priority 2013, dated 2017).

Conditions: DVS at 25° C., humidity program 50% r.h. to 95% r.h. and back to 50% r.h.
Protocol: Dynamic vapor sorption: DVS is performed at 25° C. with an SPS11-100n “Sorptions Prüfsystem” of Projekt Messtechnik, D-89077 Ulm (Germany). About 25 mg of sample is put into an aluminum sample pan. Humidity program: 50% relative humidity (r.h.) for 2 hours, 50% r.h. to 95% r.h. (humidity change rate 5% per hour), 95% r.h. for 5 hours, 95% r.h. to 50% r.h. (humidity change rate 5% per hour), 50% r.h. for 2 hours.

Cc1nc(Nc2ncc(C(=O)Nc3c(C)cccc3Cl)s2)cc(N2CCN(CCO)CC2)n1.O=C1NS(=O)(=O)c2ccccc21 [Example 5, Dasatinib saccharinate (hydrate)]
hygroscopicity by DVS: not hygroscopic
